Laboratory results from patent US7910102B2 (priority 2006, dated 2011).
Several values for one entry are separate records, joined by “and”; a condition that tells them apart may be missing. Identical values can stand only once. Entries after “also recorded” stand apart in the source; their conditions may differ. Bridge positions count the residues as written; N and C are the ends. Square brackets hold non-standard residues; d marks the D form. Ends that are not written are not given here. Peptide text beside a SMILES is read from it. 1Nal = N[C@@H](Cc1cccc2ccccc12)C(=O)O

Columns and labels:
[1] = system: IFN-g production in human whole blood; type: cell-based
[2] = system: IL-2 production in human whole blood; type: cell-based
human Kv1.3 [3] = biological target: T1, human Kv1.3 (Homo sapiens, UniProt P22001); type: cell-based; set-up: expressed in transfected cells
T1 sequence (P22001 whole entry): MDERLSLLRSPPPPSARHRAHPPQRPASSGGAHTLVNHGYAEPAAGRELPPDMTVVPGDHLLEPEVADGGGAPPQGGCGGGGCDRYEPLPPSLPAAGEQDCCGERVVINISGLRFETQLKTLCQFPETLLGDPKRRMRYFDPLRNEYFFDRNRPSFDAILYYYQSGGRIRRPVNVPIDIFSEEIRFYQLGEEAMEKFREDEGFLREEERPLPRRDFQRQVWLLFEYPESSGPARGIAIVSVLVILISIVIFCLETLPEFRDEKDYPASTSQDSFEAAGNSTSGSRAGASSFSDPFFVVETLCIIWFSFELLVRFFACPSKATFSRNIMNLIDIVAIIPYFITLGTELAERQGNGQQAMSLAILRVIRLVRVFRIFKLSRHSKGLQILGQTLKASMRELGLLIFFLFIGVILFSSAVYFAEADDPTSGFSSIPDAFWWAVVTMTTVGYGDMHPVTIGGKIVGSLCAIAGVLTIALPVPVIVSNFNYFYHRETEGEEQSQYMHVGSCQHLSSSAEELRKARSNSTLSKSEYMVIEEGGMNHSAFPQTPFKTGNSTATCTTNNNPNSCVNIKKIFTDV

human Kv1.3 [4] = biological target: T1, human Kv1.3; type: cell-based; conditions: for IC50: read-out: IC50 Sustained
CD40L on CD4+ T cells = type: cell-based, human
IL-2R on CD4+ T cells = type: cell-based, human

## CC[C@H](C)[C@@H]1NC(=O)[C@H](CCCCN)NC(=O)[C@@H](NC(=O)[C@H](CCCCN)NC(=O)[C@@H](NC(=O)[C@H](CC(N)=O)NC(=O)[C@@H](NC(=O)[C@@H](NC(=O)[C@@H](NC(=O)CN)C(C)C)[C@@H](C)CC)[C@@H](C)CC)C(C)C)CSSC[C@@H]2NC(=O)[C@H](CCCCN)NC(=O)CNC(=O)[C@H](Cc3ccccc3)NC(=O)[C@H](CCCNC(=N)N)NC(=O)[C@H](CCSC)NC(=O)CNC(=O)[C@H](C)NC(=O)[C@H](Cc3cccc4ccccc34)NC(=O)[C@H](CCCCN)NC(=O)[C@@H]3CSSC[C@@H](C(=O)N[C@H](C(=O)N4CCC[C@H]4C(=O)N[C@@H](CCCCN)C(=O)O)[C@@H](C)O)NC(=O)[C@H](Cc4c[nH]cn4)NC(=O)[C@H](CSSC[C@H](NC(=O)[C@H](CCC(N)=O)NC(=O)[C@H](CCCNC(=N)N)NC(=O)[C@H](CO)NC1=O)C(=O)N[C@@H](CC(C)C)C(=O)N[C@@H](CCC(=O)O)C(=O)N1CCC[C@H]1C(=O)N3)NC(=O)[C@H](CCCCN)NC(=O)CNC(=O)[C@H](CC(N)=O)NC(=O)[C@H](CCSC)NC2=O [K20Nal] (H-GVIINVKCKISRQCLEPCK[1Nal]AGMRFGKCMNGKCHCTPK-OH; disulfide 8-28, 14-33, 18-35)
[1]; read-out: Analogue Activity (IC50, pM) WB/IFNg
  IC50: 12 pM

## CC[C@H](C)[C@@H]1NC(=O)[C@H](CCCCN)NC(=O)[C@@H](NC(=O)[C@H](CCCCN)NC(=O)[C@@H](NC(=O)[C@H](CC(N)=O)NC(=O)[C@@H](NC(=O)[C@@H](NC(=O)[C@@H](NC(=O)CN)C(C)C)[C@@H](C)CC)[C@@H](C)CC)C(C)C)CSSC[C@@H]2NC(=O)[C@H](CCCCN)NC(=O)CNC(=O)[C@H](Cc3ccccc3)NC(=O)[C@H](CCCNC(=N)N)NC(=O)[C@H](CCSC)NC(=O)CNC(=O)[C@H](C)NC(=O)[C@H](CCCCN)NC(=O)[C@H](CCCCN)NC(=O)[C@@H]3CSSC[C@@H](C(=O)N[C@H](C(=O)N4CCC[C@H]4C(=O)N[C@@H](CCCCN)C(=O)O)[C@@H](C)O)NC(=O)[C@H](Cc4c[nH]cn4)NC(=O)[C@H](CSSC[C@H](NC(=O)[C@H](CCC(N)=O)NC(=O)[C@H](CCCNC(=N)N)NC(=O)[C@H](CO)NC1=O)C(=O)N[C@@H](CC(C)C)C(=O)N[C@@H](CCC(=O)O)C(=O)N1CCC[C@H]1C(=O)N3)NC(=O)[C@H](CCCCN)NC(=O)CNC(=O)[C@H](CC(N)=O)NC(=O)[C@H](C)NC2=O [OSK1[Ala-29]] (H-GVIINVKCKISRQCLEPCKKAGMRFGKCANGKCHCTPK-OH; disulfide 8-28, 14-33, 18-35)
[2]
  potency in blocking the cytokine response relative to cyclosporin A (in words): several orders of magnitude more potent
Human Kv1.3 [3]
  inhibition of the Kv1.3 current (in words): potent inhibition of the Kv1.3 current

## Fc-L10-OSK1[K7S,E16K,K20D]: OSK1-peptibody with triple amino acid substitutions at positions 7, 16 and 20
Human Kv1.3 [4]
  fold less potent than the synthetic OSK1 toxin peptide: approximately 21 fold

## Fc-L10-OSK1[K7S]
Human Kv1.3 [4]
  fold less potent than the synthetic OSK1 toxin peptide: approximately 10 fold

## Fc-L10-ShK[2-35]: human IgG1 Fc fused via L10 linker to ShK[2-35]; peptibody
CD40L on CD4+ T cells
  block of thapsigargin-induced upregulation of CD40L on T cells (in words): blocked
IL-2R on CD4+ T cells
  block of thapsigargin-induced upregulation of the IL-2R on T cells (in words): blocked
[2]
  block of thapsigargin-induced IL-2 production in human whole blood (in words): suppressed; also recorded: potently blocked IL-2 secretion
[1]
  block of thapsigargin-induced IFN-g production in human whole blood (in words): suppressed; also recorded: blocked

## PEG-Fc-L10-OSK1
Human Kv1.3 [4]
  IC50: 0.256 nM and 0.332 nM

## PEG-Fc-L10-SHK(2-35)
Human Kv1.3 [4]
  IC50: 0.175 nM and 0.158 nM

## SEQ ID No: 4989: OSK1 analog without beta strand 1 (labeled des 1-7), Table 42 (CKISRQCLKPCKDAGMRFGKCMNGKCHC-NH2; ends and bridges not checked)
[2]
  blockade of the whole blood cytokine response / inflammation (in words): still retain activity in blocking inflammation

## dendrotoxin-K [DTX-K, reference compound]
CD40L on CD4+ T cells
  block of thapsigargin-induced upregulation of CD40L on T cells (in words): no significant activity
IL-2R on CD4+ T cells
  block of thapsigargin-induced upregulation of the IL-2R on T cells (in words): no significant activity

## iberiotoxin (QFTDVDCSVSKECWSVCKDLFGVDRGKCMGKKCRCYQ; Definition of Artificial Sequence: Synthetic peptide) [IbTx, reference compound]
CD40L on CD4+ T cells
  block of thapsigargin-induced upregulation of CD40L on T cells (in words): no significant activity
IL-2R on CD4+ T cells
  block of thapsigargin-induced upregulation of the IL-2R on T cells (in words): no significant activity
[2]
  block of thapsigargin-induced IL-2 production in human whole blood (in words): no significant activity
[1]
  block of thapsigargin-induced IFN-g production in human whole blood (in words): no significant activity

B1: PEGylated CH2-OSK1: CH2-OSK1 fusion protein mono-PEGylated with 20 kD methoxy-PEG-aldehyde (conjugate)
chain: MGGHHHHHHGGGPSVFLFPPKPKDTLMISRTPEVTCVVVDVSHEDPEVKFNWYVDGVEVHNAKTKPREEQYNSTYRVVSVLTVLHQDWLNGKEYKCKVSNKALPAPIEKTISGGGGSGGGGSGVIINVKCKISRQCLEPCKKAGMRFGKCMNGKCHCTPK
[2]
  blockade of the whole blood cytokine response / inflammation (in words): active in blocking inflammation; also recorded: modest blockade of the whole blood cytokine response

B2: FcLoop-L2-ShK-L2: ShK inserted into the human IgG1 Fc-loop domain with Gly linkers (protein)
chain: MDKTHTCPPCPAPELLGGPSVFLFPPKPKDTLMISRTPEVTCVVVDVSHEDPEVKFNWYVDGVEVHNAKTKPREEQYNSTYRVVSVLTVLHQDWLNGKEYKCKVSNKALPAPIEKTISKAKGQPREPQVYTLPPSRDELGGRSCIDTIPKSRCTAFQCKHSMKYRLSFCRKTCGTCGGTKNQVSLTCLVKGFYPSDIAVEWESNGQPENNYKTTPPVLDSDGSFFLYSKLTVDKSRWQQGNVFSCSVMHEALHNHYTQKSLSLSPGK
modifications: Definition of Artificial Sequence: Synthetic protein
[2]
  blockade of the whole blood cytokine response / inflammation (in words): IC50 values in the pM range

B3: FcLoop-L2-OsK1-L2: OsK1 inserted into the human IgG1 Fc-loop domain with Gly linkers (protein)
chain: MDKTHTCPPCPAPELLGGPSVFLFPPKPKDTLMISRTPEVTCVVVDVSHEDPEVKFNWYVDGVEVHNAKTKPREEQYNSTYRVVSVLTVLHQDWLNGKEYKCKVSNKALPAPIEKTISKAKGQPREPQVYTLPPSRDELGGGVIINVKCKISRQCLEPCKKAGMRFGKCMNGKCHCTPKGGTKNQVSLTCLVKGFYPSDIAVEWESNGQPENNYKTTPPVLDSDGSFFLYSKLTVDKSRWQQGNVFSCSVMHEALHNHYTQKSLSLSPGK
modifications: Definition of Artificial Sequence: Synthetic protein
[2]
  blockade of the whole blood cytokine response / inflammation (in words): IC50 values in the pM range

B4: FcLoop-L4-OsK1-L4: FcLoop OSK1 toxin conjugate as named in b1013 only (protein)
chain: MDKTHTCPPCPAPELLGGPSVFLFPPKPKDTLMISRTPEVTCVVVDVSHEDPEVKFNWYVDGVEVHNAKTKPREEQYNSTYRVVSVLTVLHQDWLNGKEYKCKVSNKALPAPIEKTISKAKGQPREPQVYTLPPSRDELGGGGGVIINVKCKISRQCLEPCKKAGMRFGKCMNGKCHCTPKGGTKNQVSLTCLVKGFYPSDIAVEWESNGQPENNYKTTPPVLDSDGSFFLYSKLTVDKSRWQQGNVFSCSVMHEALHNHYTQKSLSLSPGK
[2]
  blockade of the whole blood cytokine response / inflammation (in words): IC50 values in the pM range
